Measured values reported in patent US20240131027A1, “PHARMACEUTICAL COMPOSITION COMPRISING NOVEL SD911 COMPOUND AS ACTIVE INGREDIENT FOR PREVENTION OR TREATMENT OF TRANSPLANT REJECTION” (THE CATHOLIC UNIVERSITY OF KOREA INDUSTRY-ACADEMIC …, priority 2021, published 2024).

Legend:
[1] = tested on: immune cells isolated from the spleens of normal C57/BL6 mice; test: Suppression of SDF1-induced migration of spleen immune cells in trans wells; type: cell-based; details: SD911 20 μM; SDF1 20 ng/ml in lower compartment; FIGS. 1A and 1B
Protocol: The present inventors screened a novel compound SD911 by using activity inhibition analysis of inflammatory cytokines in immune cells of a sphingosin 1-phosphate lyase (SPL) inhibitor, and tried to confirm an immune cell migration inhibitory effect of the screened SD911. Specifically, single cells (immune cells) were isolated from the spleens of normal C57/BL6 mice, and the isolated immune cells were cultured in […] trans wells (upper compartment). For migration of the cultured immune cells, stromal cell-derived factor 1 (SDF1) was treated at a concentration of 20 ng/ml to stimulate the lower compartment. The immune cells moved to the lower compartment by stromal cell-derived factor 1 (SDF1), and at this time, whether the migration was inhibited by SD911 was analyzed.

[2] = tested on: allogenic skin transplantation animal model; test: Skin transplant viability in allogenic skin transplantation animal model; type: in vivo; details: 200 μg/mice
Excerpt: (§1) In order to confirm A therapeutic effect of SD911 of the present invention on transplantation rejection, an allogenic skin transplantation animal model was used. Specifically, as the allogenic skin transplantation animal model, the tail skins of male donor […] mice (Orient Bio Inc.) were exfoliated and transplanted onto the back skins of male recipient BALB/c mice (Orient Bio Inc.). One day before transplant, the recipient mice were divided into two groups, a control group (Saline group) administered intraperitoneally with physiological saline, and an experimental group (SD911 group) administered with SD911 at a concentration of 200 μg/mice.
The skin changes of the control group or the experimental group (SD911 group) treated with SD911 at a concentration of 200 μg/mice were observed daily, and the viability was calculated by calculating the rejection when scab formation or skin atrophy of 70% or more occurred on the transplanted skin. A drug administration schedule was illustrated in FIG. 2A.

[3] = tested on: T cell subtypes (Th1, Th2, Th17, Treg); test: T cell subtype analysis by flow cytometry of spleen immune cells in skin transplantation model; type: in vivo; details: 200 μg/mice, spleen after 5 days, compared to control group
Excerpt: as §1
Some of the recipient mice that had undergone the skin transplant were humanely sacrificed after 5 days, the spleens were extracted, and immune cells were isolated from the spleens. In order to analyze T cell subtypes in the isolated immune cells, flow cytometry was performed, and to identify pro-inflammatory T cells, the number of CD4+, IFN+, IL4+ and IL17+ positive cells was analyzed. In addition, regulatory T cells (Treg) were identified as CD4+CD25+Foxp3+ positive cells.

[4] = tested on: human leukocyte antigen (HLA); test: HLA inhibition in IFNγ-treated kidney organoids (in vitro rejection model); type: cell-based; details: 50 μM SD911; kidney organoids from WTC-11 iPSC treated with IFNγ; FIG. 4
Protocol: (§2) WTC-11 cells, standard normal human induced pluripotent stem cells (iPSC) were differentiated into kidney organoids and treated with IFNγ, a cytokine known to induce transplantation rejection to construct an in vitro rejection model increasing human leukocyte antigen (HLA). Thereafter, the constructed kidney organoids were treated with 50 μM of SD911.

kidney organoids = test: Flow cytometry of nephron marker double positive cells in cytokine-treated kidney organoids; type: cell-based, human; details: SD911 50 μg/mL; TNF-α and INFγ treated kidney organoids; FIGS. 5A to 5F
Protocol: as §2
In the kidney organoids prepared in Example 3-1, when treated with the cytokines TNF-α and INFγ and when treated with SD911 at a concentration of 50 μg/mL, changes in cell patterns were analyzed by flow cytometry. Specifically, the patterns of nephron markers PODXL, LTL, ECAD and double positive cells in kidney organoids were analyzed.

[5] = tested on: kidney transplantation rejection model; test: Cell infiltration and kidney damage (H&E) in kidney transplantation rejection model; type: in vivo; details: 300 μg/mice, compared with the vehicle group, FIGS. 8A and 8B
Protocol: In order to produce a kidney transplantation rejection model, peripheral blood mononuclear cells (PBMCs) derived from transplantation rejection patients (kidney transplantation rejection patients) were intravascularly injected at a cell concentration of 5×10^6/mice, and then after 3 weeks, engraftment of transplantation rejection patient cells in the blood was confirmed, and a kidney transplantation rejection model was constructed. As a control group, normal human PBMCs were injected (FIG. 6). At 3 weeks after PBMC administration to the kidney transplantation rejection model prepared in Example 4-1, the mice were treated with physiological saline (vehicle) and SD911 (300 μg/mice) and sacrificed at 4 weeks and then the kidneys of the mice were extracted.

[6] = tested on: CD4+T (CD4+), subtype of human immune cells; test: CD4 positive cell infiltration in renal tissue by immunohistochemical staining, kidney transplantation rejection model; type: in vivo; details: 300 μg/mice, group injected with PBMCs of patients with kidney transplantation rejection, FIGS. 9A and 9B
Protocol: (§3) In order to produce a kidney transplantation rejection model, peripheral blood mononuclear cells (PBMCs) derived from transplantation rejection patients (kidney transplantation rejection patients) were intravascularly injected at a cell concentration of 5×10^6/mice, and then after 3 weeks, engraftment of transplantation rejection patient cells in the blood was confirmed, and a kidney transplantation rejection model was constructed. As a control group, normal human PBMCs were injected (FIG. 6).
(§4) At 3 weeks after PBMC administration to the kidney transplantation rejection model prepared in Example 4-1, the mice were treated with physiological saline (vehicle) and SD911 (300 μg/mice) and sacrificed at 4 weeks and then the kidneys of the mice were extracted.
(§5) Immunohistochemical staining was performed to confirm whether CD4+T (CD4+), subtype of human immune cells, has been infiltrated in the renal tissue extracted in Example 4-2. The extracted tissue was fixed with formalin, and then embedded in paraffin to generate slices with a thickness of 5 μm. In order to observe immune cells in the tissue, immunohistochemical analysis was performed by reacting with a human CD4 antibody on the slice slide.

IL-17 = IL-17 positive cell infiltration in renal tissue by immunohistochemical staining, kidney transplantation rejection model; type: in vivo; details: 300 μg/mice, group injected with PBMCs of patients with kidney transplantation rejection, FIGS. 10A and 10B
Protocol: as §3, §4
as §5, with “whether IL-17, an inflammatory cytokine,” for “whether CD4+T (CD4+), subtype of human immune cells,”, “infiltrated into” for “infiltrated in”, “human IL-17” for “human CD4”

C[C@@H]1CN(c2nnc(Oc3ccccc3)c3ccccc23)CCN1c1ccc(C#N)cn1 [SD911, 6-((R)-2-methyl-4-(1-phenoxyphthalazin-4-yl)piperazin-1-yl)pyridine-3-carbonitrile]
migration of immune cells induced by SDF1 [1]: blocked
viability of the transplanted skin ([2]; compared to control (Saline) group, FIG. 2B): significantly increased
survival time of the transplanted skin ([2]; compared to control group, FIG. 2C): significantly increased
number of Th1 cells ([3]; FIG. 3A): significantly decreased
number of Th2 cells ([3]; FIG. 3B): significantly decreased
number of Th17 cells ([3]; FIG. 3C): significantly decreased
Treg (CD4+CD25+Foxp3+ positive cells) ([3]; FIG. 3D): increased
HLA increased by IFNγ [4]: suppressed
positive cell ratio of the nephron marker (PODXL, LTL, ECAD double positive cells) (kidney organoids): significantly decreased
kidney damage [5]: suppressed
human PBMC infiltration ([5]; glomerulus): suppressed
infiltration of CD4-positive cells [6]: significantly reduced
infiltration of IL-17-positive cells (IL-17): significantly reduced
